Test results published in patent US5494898A, “Peptide skeletal muscle relaxants” (priority 1994, dated 1996).
Square brackets hold non-standard residues; d marks the D form. Peptide text beside a SMILES is read from it. * marks the point of attachment. dLys(Me3) = C[N+](C)(C)CCCC[C@@H](N)C(=O)O; Boc = CC(C)(C)OC(=O)*

What was measured:
[1] = test system: neuromuscular junction; test: Mouse inclined screen grip strength test (neuromuscular junction blocking activity); format: in vivo; conditions: mice on screen inclined 45°; dose required to inhibit grip strength
Protocol: The first step, in mice, establishes a preliminary estimate of the potency and efficacy of the compounds. The animals were placed on a screen, inclined 45° to the horizontal. Effective doses caused the mice to lose their grip and slide down the inclined screen. The dose in mg/kg of body weight required to inhibit grip strength in 100% of the mice tested in a dosage group is reported.

[2] = test system: neuromuscular junction; test: Rabbit paw twitch analysis; format: in vivo; conditions: for ED90 (dose required to depress twitch tension to 10% of control): anesthetized male New Zealand white rabbits, i.v. marginal ear vein
Excerpt: In a large series of similar relaxants, the rabbit dose is typically 125% of that in mice. The mechanism of action was also confirmed in this test by observing train-of-four and tetanus fade, post-tetanic potentiation of single twitches and administration of the anticholinesterase drug neostigmine which reverses the relaxation. Reversibility, rapid onset and short duration are important factors to the anesthesiologist.
The following is a brief description of the methodologies used in rabbits to describe neuromuscular blocking activity of the subject compounds. A more detailed description of these methods is presented in "Microcomputer Use in Measuring Onset, Duration, and Recovery from Non-Depolarizing Skeletal Muscle Relaxants in Rabbits", P.D. Thut et al., Drug development Research 5:182, 1985.
Male New Zealand white rabbits weighing between 2.5 and 3.4 kg were anesthetized with pentobarbital (30 mg/kg) and placed on their backs upon a 40° C. water filled temperature regulation pad. Following tracheostomy, the lungs were mechanically ventilated at 28 breaths per minute with room air, using an open system delivering 200 ml/stroke. This ventilation maintained pCO2 at 38 […] and pO2 at 85 mmHg. Direct arterial blood pressure was measured from the right common carotid artery. The test compounds were administered through a cannula placed in the marginal ear vein. Each foreleg was taped to a cushioned plate held in a femur clamp attached to the spinal board rack. The left central digit of each paw was connected to a force displacement transducer for measurement of muscle tension. Nerve stimulation was provided by pairs of pin electrodes placed on both sides of the ulnar nerve at the elbow of both forearms. The right ulnar nerve was stimulated at 1 Hz, 1 pps for 0.5 msec duration. The left ulnar nerve was similarly stimulated, every 15 seconds, with addition of interspersed trains-of-four and tetanizing stimuli. The parameters reported in Table II are: potency (ED90), which is the dose required to depress twitch tension to 10% of its control value; onset (T85%), which is the time from injection until 85% of the maximal drug effect is achieved; duration, which is the time from injection until the train-of-four has recovered to 75%; blood pressure (BP), which is the percentage change of pre-drug blood pressure; and heart rate (HR), which is the percentage change from pre-drug heart rate.

Row | SMILES | Neuromuscular Junction Blocking Activity (ED90), Mouse [1] [mg/kg] | ED90 (dose required to depress twitch tension to 10% of control) [2] [mg/kg] | HR (% change from pre-drug heart rate) ([2]; rabbit, equi-efficacious dose) [% change] | T85% onset (time from injection until 85% of maximal drug effect) ([2]; rabbit, equi-efficacious dose) [s] | BP (% change of pre-drug blood pressure) ([2]; rabbit, equi-efficacious dose, carotid arterial pressure) [% change] | Duration (time from injection until train-of-four recovered to 75%) ([2]; rabbit, equi-efficacious dose) [min]
1 | CC(=O)O[C@H]1C[C@@H]2CC[C@@H]3[C@H](CC[C@@]4(C)[C@H]3C[C@H]([N+]3(C)CCCCC3)[C@@H]4OC(C)=O)[C@@]2(C)C[C@@H]1N1CCCCC1 [vecuronium] | 0.03 | 0.02 | -9.90 | 97.30 | – | –
2 | COc1ccc(CC2c3cc(OC)c(OC)cc3CC[N+]2(C)CCC(=O)OCCCCCOC(=O)CC[N+]2(C)CCc3cc(OC)c(OC)cc3C2Cc2ccc(OC)c(OC)c2)cc1OC (stereo not drawn) [atracurium] | 0.63 | 0.05 | – | 126.90 | – | –
3 | COC(=O)[C@@H](CCCC[N+](C)(C)C)NC(=O)[C@@H](Cc1ccccc1)NC(=O)[C@@H](CCCC[N+](C)(C)C)NC(=O)OC(C)(C)C [Compound B] (Boc-[dLys(Me3)]-[dF]-[dLys(Me3)]-OMe) | – | – | 8.79 | – | -18.83 | –
4 | CC(=O)O[C@H]1C[C@@H]2CC[C@@H]3[C@H](CC[C@@]4(C)[C@H]3C[C@H]([N+]3(C)CCCCC3)[C@@H]4OC(C)=O)[C@@]2(C)C[C@@H]1[N+]1(C)CCCCC1 [pancuronium] | – | 0.02 | – | 147.50 | – | 35.50
